According to patent US20150111262A1, “METHODS AND MATERIALS FOR PRODUCING FIVE CARBON BUILDING BLOCKS FROM PROLINE” (INVISTA North America S.á r.l., priority 2013, published 2015):

Experiments:
[1] = system: ω-transaminase of SEQ ID NO: 7; assay: ω-transaminase activity, 5-aminopentanoate to glutarate semialdehyde (forward direction); type: biochemical, Chromobacterium violaceum
Experimental: (§1) A sequence encoding an N-terminal His-tag was added to the genes from Chromobacterium violaceum and Pseudomonas syringae encoding the ω-transaminases of SEQ ID NOs: 7 and 9, respectively (see FIG. 7) such that N-terminal HIS tagged ω-transaminases could be produced. Each of the resulting modified genes was cloned into a pET21a expression vector under control of the T7 promoter and each expression vector was transformed into a BL21[DE3] E. coli host. The resulting recombinant E. coli strains were cultivated at 37° C. in a 250 mL shake flask culture containing 50 mL LB media and antibiotic selection pressure, with shaking at 230 rpm. Each culture was induced overnight at 16° C. using 1 mM IPTG.
(§2) The pellet from each induced shake flask culture was harvested via centrifugation. Each pellet was resuspended and lysed via sonication. The cell debris was separated from the supernatant via centrifugation and the cell free extract was used immediately in enzyme activity assays.
Enzyme activity assays in the forward direction (i.e., 5-aminopentanoate to glutarate semialdehyde) were performed in a buffer composed of a final concentration of 50 mM HEPES buffer (pH=7.5), 10 mM 5-aminopentanoate, 10 mM pyruvate and 100 μM pyridoxyl 5′ phosphate. […] The formation of L-alanine from pyruvate was quantified via RP-HPLC.

[2] = system: ω-transaminase of SEQ ID NO: 9; assay: ω-transaminase activity, glutarate semialdehyde to 5-aminopentanoate (reverse direction); type: biochemical, Pseudomonas syringae; conditions: SEQ ID 9
Experimental: as §1, §2
Enzyme activity in the reverse direction (i.e., glutarate semialdehyde to 5-aminopentanoate) were performed in a buffer composed of a final concentration of 50 mM HEPES buffer (pH=7.5), 10 mM glutarate semialdehyde, 10 mM L-alanine and 100 μM pyridoxyl 5′ phosphate. […] The formation of pyruvate was quantified via RP-HPLC.

[3] = system: ω-transaminase of SEQ ID NO: 7; assay: ω-transaminase activity, 5-aminopentanol to 5-oxopentanol; type: biochemical, Chromobacterium violaceum
Experimental: (§3) A nucleotide sequence encoding an N-terminal His-tag was added to the Chromobacterium violaceum, Pseudomonas aeruginosa, Pseudomonas syringae, Rhodobacter sphaeroides, Escherichia coli and Vibrio Fluvialis genes encoding the ω-transaminases of SEQ ID NOs: 7-12 respectively (see FIG. 7) such that N-terminal HIS tagged ω-transaminases could be produced. The modified genes were cloned into a pET21a expression vector under the T7 promoter. Each expression vector was transformed into a BL21[DE3] E. coli host. Each resulting recombinant E. coli strain were cultivated at 37° C. in a 250 mL shake flask culture containing 50 mL LB media and antibiotic selection pressure, with shaking at 230 rpm. Each culture was induced overnight at 16° C. using 1 mM IPTG.
as §2
(§4) Enzyme activity assays in the reverse direction (i.e., 5-aminopentanol to 5-oxopentanol) were performed in a buffer composed of a final concentration of 50 mM HEPES buffer (pH=7.5), 10 mM 5-aminopentanol, 10 mM pyruvate, and 100 μM pyridoxyl 5′ phosphate. […] The formation of L-alanine was quantified via RP-HPLC.

[4] = system: ω-transaminase of SEQ ID NO: 8; assay: as above; type: biochemical, Pseudomonas aeruginosa
Experimental: as §3, §2, §4

[5] = system: ω-transaminase of SEQ ID NO: 9; assay: as above; type: biochemical, Pseudomonas syringae
Experimental: as §3, §2, §4

[6] = system: ω-transaminase of SEQ ID NO: 10; assay: as above; type: biochemical, Rhodobacter sphaeroides
Experimental: as §3, §2, §4

[7] = target: T1, ω-transaminase of SEQ ID NO: 11 (Escherichia coli, UniProt P42588); assay: as above; type: biochemical
T1 construct: His-tag (N); made in house; host or cells: E. coli BL21[DE3], pET21a; cell free extract used
T1 sequence (P42588 whole entry): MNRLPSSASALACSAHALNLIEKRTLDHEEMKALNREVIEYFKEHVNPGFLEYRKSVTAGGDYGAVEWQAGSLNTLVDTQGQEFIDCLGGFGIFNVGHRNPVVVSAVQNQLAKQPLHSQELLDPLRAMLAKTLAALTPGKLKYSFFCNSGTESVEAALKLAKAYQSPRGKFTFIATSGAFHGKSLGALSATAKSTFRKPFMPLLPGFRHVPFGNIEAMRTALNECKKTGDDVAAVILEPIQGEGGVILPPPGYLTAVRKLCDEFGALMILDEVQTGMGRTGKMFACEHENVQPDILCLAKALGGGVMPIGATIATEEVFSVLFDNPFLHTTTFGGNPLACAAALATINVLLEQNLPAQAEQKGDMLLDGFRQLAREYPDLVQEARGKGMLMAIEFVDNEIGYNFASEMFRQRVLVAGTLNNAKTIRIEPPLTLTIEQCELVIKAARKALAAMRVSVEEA
Experimental: as §3, §2, §4

[8] = system: ω-transaminase of SEQ ID NO: 12; assay: as above; type: biochemical, Vibrio Fluvialis
Experimental: as §3, §2, §4

[9] = system: ω-transaminase of SEQ ID NO: 7; assay: ω-transaminase activity, cadaverine to 5-aminopentanal; type: biochemical, Chromobacterium violaceum
Experimental: as §3, with “A” for “A nucleotide”, “syringae and” for “syringae, Rhodobacter sphaeroides,”, “coli” for “coli and Vibrio Fluvialis”, “7, 8, 9 and 11,” for “7-12”
as §2
as §4, with “cadaverine” for “5-aminopentanol”, “5-aminopentanal)” for “5-oxopentanol)”, “cadaverine,” for “5-aminopentanol,”

[10] = system: ω-transaminase of SEQ ID NO: 8; assay: as above; type: biochemical, Pseudomonas aeruginosa
Experimental: as §3, with “A” for “A nucleotide”, “syringae and” for “syringae, Rhodobacter sphaeroides,”, “coli” for “coli and Vibrio Fluvialis”, “7, 8, 9 and 11,” for “7-12”
as §2
as §4, with “cadaverine” for “5-aminopentanol”, “5-aminopentanal)” for “5-oxopentanol)”, “cadaverine,” for “5-aminopentanol,”

[11] = system: ω-transaminase of SEQ ID NO: 9; assay: as above; type: biochemical, Pseudomonas syringae
Experimental: as §3, with “A” for “A nucleotide”, “syringae and” for “syringae, Rhodobacter sphaeroides,”, “coli” for “coli and Vibrio Fluvialis”, “7, 8, 9 and 11,” for “7-12”
as §2
as §4, with “cadaverine” for “5-aminopentanol”, “5-aminopentanal)” for “5-oxopentanol)”, “cadaverine,” for “5-aminopentanol,”

[12] = target: T1, ω-transaminase of SEQ ID NO: 11; assay: as above; type: biochemical
Experimental: as §3, with “A” for “A nucleotide”, “syringae and” for “syringae, Rhodobacter sphaeroides,”, “coli” for “coli and Vibrio Fluvialis”, “7, 8, 9 and 11,” for “7-12”
as §2
as §4, with “cadaverine” for “5-aminopentanol”, “5-aminopentanal)” for “5-oxopentanol)”, “cadaverine,” for “5-aminopentanol,”

gene product of ygjG = gene product of ygjG (Escherichia coli, UniProt P42588); conditions: Samsonova et al., BMC Microbiology, 2003; cited from earlier work
Sequence of gene product of ygjG (P42588 whole entry): as above

**Q.** What does the source list for `NCCCCC(=O)O` [5-aminopentanoate]?
**A.** acceptance as substrate, forming 5-oxopentanoate, concluded from reversibility of the ω-transaminase activity ([1]; SEQ ID 7): accept 5-aminopentanoate as substrate; acceptance as substrate (conversion of pyruvate to L-alanine) vs empty vector control ([1]; cell free extract, 10 mM 5-aminopentanoate, 10 mM pyruvate, pH 7.5, 25° C., 4 h, RP-HPLC, FIG. 8): accepted 5-aminopentanoate as substrate; acceptance as substrate, forming 5-oxopentanoate, concluded from reversibility of the ω-transaminase activity [2]: accept 5-aminopentanoate as substrate

**Q.** What does the source list for `O=CCCCCO` [5-oxopentanol]?
**A.** acceptance as substrate, forming 5-aminopentanol, concluded from reversibility of the ω-transaminase activity ([3]; SEQ ID 7): accept 5-oxopentanol as substrate; acceptance as substrate, forming 5-aminopentanol, concluded from reversibility of the ω-transaminase activity ([4]; SEQ ID 8): accept 5-oxopentanol as substrate; acceptance as substrate, forming 5-aminopentanol, concluded from reversibility of the ω-transaminase activity ([5]; SEQ ID 9): accept 5-oxopentanol as substrate; acceptance as substrate, forming 5-aminopentanol, concluded from reversibility of the ω-transaminase activity ([6]; SEQ ID 10): accept 5-oxopentanol as substrate; acceptance as substrate, forming 5-aminopentanol, concluded from reversibility of the ω-transaminase activity ([7]; SEQ ID 11): accept 5-oxopentanol as substrate; acceptance as substrate, forming 5-aminopentanol, concluded from reversibility of the ω-transaminase activity ([8]; SEQ ID 12): accept 5-oxopentanol as substrate

**Q.** With `NCCCCCO` [5-aminopentanol] as the compound, how does the “acceptance as substrate (conversion of pyruvate to L-alanine) vs empty vector control” value (“acceptance … vs empty vector control” for short) ([3]; SEQ ID NO 7, 10 mM 5-aminopentanol, 10 mM pyruvate, pH 7.5, 25° C., 4 h, FIG. 13) read?
**A.** accepted 5-aminopentanol as substrate

**Q.** And the “acceptance … vs empty vector control” value ([4]; SEQ ID NO 8, 10 mM 5-aminopentanol, 10 mM pyruvate, pH 7.5, 25° C., 4 h, FIG. 13)?
**A.** accepted 5-aminopentanol as substrate

**Q.** What about the “acceptance … vs empty vector control” value ([5]; SEQ ID NO 9, 10 mM 5-aminopentanol, 10 mM pyruvate, pH 7.5, 25° C., 4 h, FIG. 13) of the same compound?
**A.** accepted 5-aminopentanol as substrate

**Q.** And the “acceptance … vs empty vector control” value ([6]; SEQ ID NO 10, 10 mM 5-aminopentanol, 10 mM pyruvate, pH 7.5, 25° C., 4 h, FIG. 13)?
**A.** accepted 5-aminopentanol as substrate

**Q.** And the “acceptance … vs empty vector control” value ([7]; SEQ ID NO 11, 10 mM 5-aminopentanol, 10 mM pyruvate, pH 7.5, 25° C., 4 h, FIG. 13)?
**A.** accepted 5-aminopentanol as substrate

**Q.** What about the “acceptance … vs empty vector control” value ([8]; SEQ ID NO 12, 10 mM 5-aminopentanol, 10 mM pyruvate, pH 7.5, 25° C., 4 h, FIG. 13) of the same compound?
**A.** accepted 5-aminopentanol as substrate

**Q.** With `NCCCCC=O` [5-aminopentanal] as the compound, how does the “acceptance as substrate, forming cadaverine, concluded from reversibility of the ω-transaminase activity” value ([9]; SEQ ID 7) read?
**A.** accept 5-aminopentanal as substrate

**Q.** What about the “acceptance as substrate, forming cadaverine, concluded from reversibility of the ω-transaminase activity” value ([10]; SEQ ID 8) of the same compound?
**A.** accept 5-aminopentanal as substrate

**Q.** And the “acceptance as substrate, forming cadaverine, concluded from reversibility of the ω-transaminase activity” value ([11]; SEQ ID 9)?
**A.** accept 5-aminopentanal as substrate

**Q.** And the “acceptance as substrate, forming cadaverine, concluded from reversibility of the ω-transaminase activity” value ([12]; SEQ ID 11)?
**A.** accept 5-aminopentanal as substrate

**Q.** For `NCCCCNCCCN` [spermidine], which “acceptance as diamine substrate” value (gene product of ygjG) is on record?
**A.** accepts

**Q.** For `NCCCCCN` [cadaverine], which “acceptance … vs empty vector control” value ([9]; SEQ ID NO 7, 10 mM cadaverine, 10 mM pyruvate, pH 7.5, 25° C., 4 h, FIG. 14) is on record?
**A.** accepted cadaverine as substrate

**Q.** What about the “acceptance … vs empty vector control” value ([10]; SEQ ID NO 8, 10 mM cadaverine, 10 mM pyruvate, pH 7.5, 25° C., 4 h, FIG. 14) of the same compound?
**A.** accepted cadaverine as substrate

**Q.** And the “acceptance … vs empty vector control” value ([11]; SEQ ID NO 9, 10 mM cadaverine, 10 mM pyruvate, pH 7.5, 25° C., 4 h, FIG. 14)?
**A.** accepted cadaverine as substrate

**Q.** And the “acceptance … vs empty vector control” value ([12]; SEQ ID NO 11, 10 mM cadaverine, 10 mM pyruvate, pH 7.5, 25° C., 4 h, FIG. 14)?
**A.** accepted cadaverine as substrate

**Q.** And the “acceptance as diamine substrate” value (gene product of ygjG)?
**A.** accepts

**Q.** Which “acceptance as diamine substrate” value (gene product of ygjG) does the source give for `NCCCCN` [putrescine] here?
**A.** accepts
